Marks after values point to notes of the source that are not given here.
Legend:
[1] = tested on: Donor 3 GMA T-Cell Lines; assay: ATP proliferation assay (CellTiter Glo), Donor 3 GMA T-cell lines, incl. reactivity to non-canonical GA peptides; format: cell-based, human; conditions: for Proliferation (luminescent ATP assay), Mean: Day 50 of culturing
[2] = tested on: Donor 3 COP T-Cell Lines; assay: ATP proliferation assay (CellTiter Glo), Donor 3 COP T-cell lines, incl. reactivity to non-canonical GA peptides; format: cell-based, human; conditions: for ATP proliferation assay: Day 14; for Reactivity (proliferation), Mean: Day 54 of culture; for Proliferation (luminescent ATP assay), Mean: Day 66 of culture, 0 μg/mL 1881

glatiramer acetate [COP]
Proliferation (luminescent ATP assay), Mean ([1]; T-cell line 165-F10G, 1 μg/mL antigen, No Antigen Value 3752): 6350 RLU | Mean, ATP proliferation assay ([1]; T-cell line 165-F10G, 1 μg/mL, Day 40): 8427 | Proliferation (luminescent ATP assay), Mean ([1]; T-cell line 165-F10G, 3 μg/mL antigen, No Antigen Value 3752): 40495 RLU | Proliferation (luminescent ATP assay), Mean ([1]; T-cell line 165-F10G, 10 μg/mL antigen, No Antigen Value 3752): 58726 RLU | Mean, ATP proliferation assay ([1]; T-cell line 165-F10G, 10 μg/mL, Day 40): 29986 | Proliferation (luminescent ATP assay), Mean ([1]; T-cell line 165-F10G, 30 μg/mL antigen, No Antigen Value 3752): 60488 RLU | Mean, ATP proliferation assay ([1]; T-cell line 165-F10G, line COP 3 μg/mL, footnote: well contained 10 μg/mL COP, Day 40): 31303** | Proliferation (luminescent ATP assay), Mean ([1]; T-cell line 165-H11G, 1 μg/mL antigen, No Antigen Value 1485): 8610 RLU | Mean, ATP proliferation assay ([1]; T-cell line 165-H11G, 1 μg/mL, Day 40): 9102 | Proliferation (luminescent ATP assay), Mean ([1]; T-cell line 165-H11G, 3 μg/mL antigen, No Antigen Value 1485): 37551 RLU | Mean, ATP proliferation assay ([1]; T-cell line 165-H11G, 3 μg/mL, Day 40): 15637 | Proliferation (luminescent ATP assay), Mean ([1]; T-cell line 165-H11G, 10 μg/mL antigen, No Antigen Value 1485): 50044 RLU | Mean, ATP proliferation assay ([1]; T-cell line 165-H11G, 10 μg/mL, Day 40): 43786 | Proliferation (luminescent ATP assay), Mean ([1]; T-cell line 165-H11G, 30 μg/mL antigen, No Antigen Value 1485): 32898 RLU | responsiveness in proliferation assay ([1]; all 8 Donor 3 GMA cell lines tested, Day 32, 10 μg/mL (Table 19)): responsive | responsiveness in proliferation assay ([1]; eleven of the 12 cell lines (all but F2G), Day 40, 1, 3 or 10 μg/mL (Table 21)): responsive | ratio of proliferation after stimulation with COP to proliferation in response to the APC control [2]: greater than 3.0 | ATP proliferation assay ([2]; 165-B6C, 10 μg/mL, control 14966): 77564 RLU | ATP proliferation assay ([2]; 165-B10C, 10 μg/mL, control 10604): 54779 RLU | ATP proliferation assay ([2]; 165-C4C, 10 μg/mL, control 23510): 108089 RLU | ATP proliferation assay ([2]; 165-C7C, 10 μg/mL, control 12707): 63491 RLU | ATP proliferation assay ([2]; 165-C9C, 10 μg/mL, control 22840): 113199 RLU | response in ATP proliferation assay ([2]; 165-D2C, 165-C7C, 165-C4C, Day 39, three concentrations (Table 24)): responded comparably | ATP proliferation assay ([2]; 165-D2C, 10 μg/mL, control 12767): 54895 RLU | ATP proliferation assay ([2]; 165-D3C, 10 μg/mL, control 18380): 119241 RLU | ATP proliferation assay ([2]; 165-D11C, 10 μg/mL, control 13302): 82759 RLU | ATP proliferation assay ([2]; 165-E3C, 10 μg/mL, control 12219): 69893 RLU | ATP proliferation assay ([2]; 165-E9C, 10 μg/mL, control 22512): 98168 RLU | ATP proliferation assay ([2]; 165-F3C, 10 μg/mL, control 13157): 93437 RLU | ATP proliferation assay ([2]; 165-F4C, 10 μg/mL, control 13598): 96289 RLU | ATP proliferation assay ([2]; 165-F6C, 10 μg/mL, control 23457): 135516 RLU | ATP proliferation assay ([2]; 165-F9C, 10 μg/mL, control 19736): 145768 RLU | Reactivity (proliferation), Mean ([2]; T-cell line 165-B6C, 1 μg/mL antigen, No Antigen 2358): 3878 RLU | Reactivity (proliferation), Mean ([2]; T-cell line 165-B6C, 3 μg/mL antigen, No Antigen 2358): 21455 RLU | Mean, ATP proliferation assay ([2]; T-cell line 165-B6C, 3 μg/mL, Day 46, after 3 days): 29815 RLU | Reactivity (proliferation), Mean ([2]; T-cell line 165-B6C, 10 μg/mL antigen, No Antigen 2358): 32197 RLU | Mean, ATP proliferation assay ([2]; T-cell line 165-B6C, 10 μg/mL, Day 46, after 3 days): 34502 RLU | Reactivity (proliferation), Mean ([2]; T-cell line 165-B6C, 100 μg/mL antigen, No Antigen 2358): 7969 RLU | Mean, ATP proliferation assay ([2]; T-cell line 165-B6C, Day 32, 10 μg/mL): 952 RLU | Reactivity (proliferation), Mean ([2]; T-cell line 165-B10C, 1 μg/mL antigen, No Antigen 2234): 2117 RLU | Reactivity (proliferation), Mean ([2]; T-cell line 165-B10C, 3 μg/mL antigen, No Antigen 2234): 2519 RLU | Mean, ATP proliferation assay ([2]; T-cell line 165-B10C, 3 μg/mL, Day 46, after 3 days): 8450 RLU | Reactivity (proliferation), Mean ([2]; T-cell line 165-B10C, 10 μg/mL antigen, No Antigen 2234): 6701 RLU | Mean, ATP proliferation assay ([2]; T-cell line 165-B10C, 10 μg/mL, Day 46, after 3 days): 19792 RLU | Reactivity (proliferation), Mean ([2]; T-cell line 165-B10C, 100 μg/mL antigen, No Antigen 2234): 6215 RLU | Proliferation (luminescent ATP assay), Mean ([2]; T-cell line 165-C4C, 1 μg/mL antigen): 2357 | Mean, ATP proliferation assay ([2]; T-cell line 165-C4C, 1 μg/mL, Day 39): 11653 | Proliferation (luminescent ATP assay), Mean ([2]; T-cell line 165-C4C, 3 μg/mL antigen): 7913 | Mean, ATP proliferation assay ([2]; T-cell line 165-C4C, 3 μg/mL, Day 39): 28474 | Proliferation (luminescent ATP assay), Mean ([2]; T-cell line 165-C4C, 10 μg/mL antigen): 74558

— US9995734B2, “Human T cell line assay for evaluating the immunologic identity of glatiramer acetate preparations” (Mylan Inc., priority 2013, dated 2018)
